Measurements from patent publication US10017480B2, “Compounds having a selective PDE4D inhibiting activity” (UNIVERSITÂ DEGLI STUDI DI GENOVA, priority 2014, dated 2018).

Legend:
PDE4D2 = PDE4D2 (Homo sapiens, UniProt Q08499); assay: PDE4D2 enzyme inhibition (IMAP); format: biochemical
[1] = Cytotoxicity, lactate-dehydrogenase release; format: cell-based; details: human, HTLA human neuronal cells
Experimental: To evaluate the preliminary toxic profile of the molecule XVIIIa, we performed cytotoxicity and genotoxicity assays on human neuronal cells (HTLA). For the cytotoxic potential, we analyzed the lactate-dehydrogenase release in cells exposed for 24 hours to high concentrations (100 μM) of XVIIIa or GEBR-7b (lead compound—Bruno et al, Br. J. Pharm., 2011, 164:2054).

PDE4D1 = PDE4D1 (Homo sapiens, UniProt Q08499); assay: PDE4D1 enzyme inhibition (IMAP); format: biochemical
Chain of PDE4D1 (Q08499 1-584 isoform Q08499-4): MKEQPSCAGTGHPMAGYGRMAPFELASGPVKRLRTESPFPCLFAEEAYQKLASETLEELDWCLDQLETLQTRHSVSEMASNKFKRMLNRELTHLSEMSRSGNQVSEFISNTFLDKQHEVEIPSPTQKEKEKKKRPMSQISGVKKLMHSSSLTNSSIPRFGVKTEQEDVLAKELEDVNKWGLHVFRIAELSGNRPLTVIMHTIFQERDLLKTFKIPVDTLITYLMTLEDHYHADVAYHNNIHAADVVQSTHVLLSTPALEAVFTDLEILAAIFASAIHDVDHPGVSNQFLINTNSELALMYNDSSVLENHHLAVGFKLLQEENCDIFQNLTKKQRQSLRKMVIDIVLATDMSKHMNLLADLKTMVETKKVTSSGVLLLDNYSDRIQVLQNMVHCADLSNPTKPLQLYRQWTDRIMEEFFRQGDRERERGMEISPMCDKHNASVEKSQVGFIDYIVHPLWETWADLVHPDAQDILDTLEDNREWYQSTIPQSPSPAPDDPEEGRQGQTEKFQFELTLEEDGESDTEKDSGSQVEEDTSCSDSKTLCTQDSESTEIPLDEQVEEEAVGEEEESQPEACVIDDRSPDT

PDE4D3 = PDE4D3 (Homo sapiens, UniProt Q08499); assay: PDE4D3 enzyme inhibition (IMAP); format: biochemical
Chain of PDE4D3 (Q08499 1-673 isoform Q08499-2): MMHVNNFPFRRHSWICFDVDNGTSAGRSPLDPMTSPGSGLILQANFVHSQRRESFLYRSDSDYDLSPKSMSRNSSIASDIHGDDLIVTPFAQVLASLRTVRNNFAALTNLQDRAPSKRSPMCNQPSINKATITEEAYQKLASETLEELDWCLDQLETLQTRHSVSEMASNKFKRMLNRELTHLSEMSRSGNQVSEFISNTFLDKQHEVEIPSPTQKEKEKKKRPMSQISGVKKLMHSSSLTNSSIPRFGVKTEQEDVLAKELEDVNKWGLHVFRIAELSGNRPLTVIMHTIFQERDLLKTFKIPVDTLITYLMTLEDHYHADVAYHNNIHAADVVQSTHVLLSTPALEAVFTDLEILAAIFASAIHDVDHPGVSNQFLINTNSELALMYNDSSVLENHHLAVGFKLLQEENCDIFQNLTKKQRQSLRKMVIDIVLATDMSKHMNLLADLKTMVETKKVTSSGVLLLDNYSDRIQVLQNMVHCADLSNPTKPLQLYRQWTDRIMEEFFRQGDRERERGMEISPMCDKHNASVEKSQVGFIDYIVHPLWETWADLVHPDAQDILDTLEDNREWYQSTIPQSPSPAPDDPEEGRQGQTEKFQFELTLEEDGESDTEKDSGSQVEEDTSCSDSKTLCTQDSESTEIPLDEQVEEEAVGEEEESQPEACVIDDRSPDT
Experimental: (§1) Compound's evaluation on PDE4D3, PDE4A4, PDE4B2 and PDE4C2 enzyme assays were performed by Scottish Biomedical (Glasgow, Scotland, UK) using recombinant human PDE enzymes expressed in a baculoviral system. The preliminary screening assays were performed by the IMAP technology (Molecular Devices), which is based on the high affinity binding of phosphate by immobilized metal coordination complexes on nanoparticles. The binding reagent complexes with phosphate groups on nucleotide monophosphate generated from cyclic nucleotides (cAMP) through phosphodiesterases. With fluorescence polarization detection, binding causes a change in the rate of the molecular motion of the phosphate bearing molecule and results in an increase in the fluorescence polarization value observed for the fluorescent label attached to the substrate. […] All compounds were solved in DMSO at 10^−2 M concentration and then diluted with water to the final suitable concentrations. All synthesized compounds were tested preliminary on PDE4D3 at 10^−5 M concentration, in duplicate. Results are expressed as a percent inhibition of control activity (see table 1).
IC50 values are reported at μM concentration in table 1. […] The results are reported (as percent of inhibition at 10 μM concentration) in Table 1.

[2] = system: hippocampal slices from Tg2576 mice and WT littermates; assay: Electrophysiological study, LTP in hippocampal slices; details: 2 μM, bath, 20 minutes before theta burst stimulation
Experimental: Compound XVIIIa was tested to determine whether PDE4D inhibition can revert the damage of synaptic function following Aβ elevation in Tg2576 mice.
All experiments were performed with approval of the Columbia University IACUC Committe. The animals were 12 month old single transgenic mice expressing the human APP mutation (K670N,M671L) (a.k.a. Tg2576), as well as their WT littermates.
Slice recordings were performed as described previously (Trinchese et al, Ann Neurol 2004). Briefly, 400-μm slices were cut with a tissue chopper and maintained in an interface chamber at 29° C. for 90 minutes prior to recording. CA1 fEPSPs were recorded by placing both the stimulating and the recording electrodes in CA1 stratum radiatum. Basal synaptic transmission was assayed either by plotting the stimulus voltages against slopes of fEPSP. For LTP experiments, a 10-minute baseline was recorded every minute at an intensity that evokes a response approximately 35% of the maximum evoked response. Baseline was followed by a 20 minute perfusion with the compound prior to eliciting LTP using θ-burst stimulation (4 pulses at 100 Hz, with the bursts repeated at 5 Hz, and each tetanus including 3 ten-burst trains separated by 15 seconds). […]

[3] = system: extracellular cAMP in the hippocampus of freely moving rats; assay: In vivo cAMP-enhancing potential, intracerebral microdialysis
Experimental: The in vivo effects of XVIIIa on extracellular cAMP levels in the hippocampus of freely moving rats were analyzed by means of intracerebral microdialysis.
However, when the PDE4D inhibitor was infused at the concentration of 100 μM, a marked cAMP response could be observed (40-80% over basal values) as reported in FIG. 3. The effects of XVIIIa were similar to those previously reported for the PDE4D inhibitor GEBR-7b (lead compound; data taken from Bruno et al., Br. J. Pharmacol. 2011, 164, 2054-2063).
XVIIIa or GEBR-7b were administered through the probe after 3 consecutive control samples had been collected and were present in the infusion fluid for the time indicated by the horizontal empty bar. Data are expressed as percentages of the mean basal value (defined 100%) that was determined by averaging the cAMP content in the three fractions collected before drug treatment. Each point represents the mean±SEM for 3-6 different experiments.

[4] = system: forskolin (FSK)-induced cAMP in neuronal cultured cells; assay: In vitro cAMP-enhancing potential (EIA); details: 100 μM
PDE4B2 = target: T1, PDE4B2 (Homo sapiens, UniProt Q07343); assay: PDE4B2 enzyme inhibition (IMAP); format: biochemical; details: 10 μM
T1 construct: purchased Scottish Biomedical (Glasgow, Scotland, UK); host or cells: baculoviral system
T1 sequence (Q07343 1-564 isoform Q07343-2): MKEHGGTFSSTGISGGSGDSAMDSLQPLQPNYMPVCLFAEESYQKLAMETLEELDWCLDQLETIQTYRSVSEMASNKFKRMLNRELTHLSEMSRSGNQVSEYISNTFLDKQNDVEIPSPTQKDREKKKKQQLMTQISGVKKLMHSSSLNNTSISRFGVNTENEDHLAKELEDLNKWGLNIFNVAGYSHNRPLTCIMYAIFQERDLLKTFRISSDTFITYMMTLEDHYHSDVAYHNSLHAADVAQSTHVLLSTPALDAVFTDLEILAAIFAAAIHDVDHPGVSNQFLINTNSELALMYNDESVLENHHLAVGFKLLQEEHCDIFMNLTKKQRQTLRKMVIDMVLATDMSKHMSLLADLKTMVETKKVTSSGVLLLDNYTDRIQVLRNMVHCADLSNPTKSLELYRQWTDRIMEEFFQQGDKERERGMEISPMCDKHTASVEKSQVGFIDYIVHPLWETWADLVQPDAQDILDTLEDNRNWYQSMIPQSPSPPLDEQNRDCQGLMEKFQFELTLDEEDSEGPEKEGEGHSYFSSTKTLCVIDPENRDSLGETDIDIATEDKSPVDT
Experimental: as §1
(§2) The IC50 values obtained for the reference compounds are within accepted limits of historic averages obtained (0.5 log unit). IC50 values are reported at μM concentration in table 1. […] The results are reported (as percent of inhibition at 10 μM concentration) in Table 1.

PDE4A4 = PDE4A4 (Homo sapiens, UniProt P27815); assay: PDE4A4 enzyme inhibition (IMAP); format: biochemical; details: 10 μM
Chain of PDE4A4 (P27815 whole entry): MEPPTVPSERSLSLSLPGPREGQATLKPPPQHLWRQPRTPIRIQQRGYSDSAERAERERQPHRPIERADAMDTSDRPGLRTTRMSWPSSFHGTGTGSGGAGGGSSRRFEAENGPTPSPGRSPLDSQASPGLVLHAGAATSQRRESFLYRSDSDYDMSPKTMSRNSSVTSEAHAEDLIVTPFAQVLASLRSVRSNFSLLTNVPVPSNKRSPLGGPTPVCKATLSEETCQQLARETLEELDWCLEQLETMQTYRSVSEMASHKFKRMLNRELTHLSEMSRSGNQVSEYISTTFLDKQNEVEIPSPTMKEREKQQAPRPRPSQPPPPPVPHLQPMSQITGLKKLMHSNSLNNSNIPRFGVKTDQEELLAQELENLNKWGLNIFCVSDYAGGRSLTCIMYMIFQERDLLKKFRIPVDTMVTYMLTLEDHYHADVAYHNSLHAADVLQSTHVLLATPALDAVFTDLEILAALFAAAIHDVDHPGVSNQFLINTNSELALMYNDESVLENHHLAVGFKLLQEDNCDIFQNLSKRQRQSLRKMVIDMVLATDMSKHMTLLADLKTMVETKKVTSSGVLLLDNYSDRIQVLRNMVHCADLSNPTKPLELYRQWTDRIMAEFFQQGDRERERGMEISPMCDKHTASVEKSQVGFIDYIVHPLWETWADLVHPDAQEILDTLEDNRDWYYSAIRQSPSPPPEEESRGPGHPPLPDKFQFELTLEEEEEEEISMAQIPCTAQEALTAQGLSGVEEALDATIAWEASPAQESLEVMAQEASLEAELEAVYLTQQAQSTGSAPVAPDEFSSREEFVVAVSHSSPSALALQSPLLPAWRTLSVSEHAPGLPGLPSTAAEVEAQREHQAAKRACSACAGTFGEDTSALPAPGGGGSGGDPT
Experimental: as §1, §2

PDE4C2 = target: T2, PDE4C2 (Homo sapiens, UniProt Q08493); assay: PDE4C2 enzyme inhibition (IMAP); format: biochemical
T2 construct: purchased Scottish Biomedical (Glasgow, Scotland, UK); host or cells: baculoviral system
T2 sequence (Q08493 107-712): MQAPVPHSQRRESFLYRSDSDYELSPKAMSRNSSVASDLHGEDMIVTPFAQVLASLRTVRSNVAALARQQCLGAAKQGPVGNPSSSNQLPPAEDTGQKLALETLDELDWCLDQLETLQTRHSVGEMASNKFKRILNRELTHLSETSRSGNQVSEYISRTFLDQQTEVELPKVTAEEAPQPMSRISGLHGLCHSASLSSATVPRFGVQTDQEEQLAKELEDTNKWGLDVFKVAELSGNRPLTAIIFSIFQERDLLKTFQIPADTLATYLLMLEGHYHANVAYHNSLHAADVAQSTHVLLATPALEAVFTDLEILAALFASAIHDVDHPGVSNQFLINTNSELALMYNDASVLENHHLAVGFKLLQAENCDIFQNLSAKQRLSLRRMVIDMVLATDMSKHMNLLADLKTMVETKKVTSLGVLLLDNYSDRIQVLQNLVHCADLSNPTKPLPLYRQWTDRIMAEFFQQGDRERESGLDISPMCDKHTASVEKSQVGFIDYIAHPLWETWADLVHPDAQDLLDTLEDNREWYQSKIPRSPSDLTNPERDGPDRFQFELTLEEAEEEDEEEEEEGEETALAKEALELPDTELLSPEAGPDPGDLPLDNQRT
Experimental: as §1, §2

[5] = Pharmacokinetic analysis, plasma and brain
HTLA cells = assay: Genotoxicity, Western blot of γ-H2AX; format: cell-based, human; details: 100 μM
From the text: To evaluate the genotoxic potential of XVIIIa and GEBR-7b, we analyzed the phosphorylation of the chromatin-bound histone H2AX (γ-H2AX), which is a quantitative marker for the DNA damage response at the site of double-strand breaks.
The H2AX signal represents the internal loading control.

[6] = male, BALB/c, mouse, brain, sc, 10 mg/kg
[7] = male, BALB/c, mouse, plasma, sc, 10 mg/kg

Chain of PDE4D2 (Q08499 303-809 limits assumed): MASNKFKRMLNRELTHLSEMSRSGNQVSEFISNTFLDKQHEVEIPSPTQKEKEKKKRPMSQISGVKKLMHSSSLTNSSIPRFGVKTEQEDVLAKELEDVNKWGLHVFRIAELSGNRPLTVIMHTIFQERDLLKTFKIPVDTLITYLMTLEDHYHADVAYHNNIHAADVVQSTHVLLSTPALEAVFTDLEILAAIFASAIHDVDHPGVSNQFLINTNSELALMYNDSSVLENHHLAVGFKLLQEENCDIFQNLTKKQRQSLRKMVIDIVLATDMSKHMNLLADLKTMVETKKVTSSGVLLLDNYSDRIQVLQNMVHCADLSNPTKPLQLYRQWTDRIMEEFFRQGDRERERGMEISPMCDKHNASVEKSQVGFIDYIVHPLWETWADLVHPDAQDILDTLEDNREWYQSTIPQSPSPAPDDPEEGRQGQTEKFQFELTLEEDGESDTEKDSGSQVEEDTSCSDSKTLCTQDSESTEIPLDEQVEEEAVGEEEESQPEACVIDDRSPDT

## COc1ccc(-c2ccn(CC(O)CN3CCOCC3)n2)cc1OC1CCCC1 (stereo not drawn) [XVIIIa, 1-{3-[3-(Cyclopentyloxy)-4-methoxyphenyl]-1H-pyrazol-1-yl}-3-morpholin-4-ylpropan-2-ol dihydrocloride]
PDE4D2
  PDE4D2 % inib at 10 μM: 28%
[1]
  cytotoxicity at 24 h, 100 µM: 3.3 ± 0.4%
PDE4D1
  PDE4D1 % inib at 10 μM: 34%
PDE4D3; 10 μM, in duplicate
  PDE4D3 % inib at 10 μM: 68%
PDE4D3; five concentrations 10^−8-10^−4 M
  IC50: 7.6 µM
[2]
  LTP in WT littermates: without affecting LTP
  LTP in hippocampal slices from 12 month-old Tg mice: rescued the defect in LTP
[3]; 30 μM by reverse dialysis
  hippocampal extracellular cAMP: slight, though not significant, increase
[3]; 100 μM infused
  hippocampal extracellular cAMP response: 40-80 % over basal values
[4]; 10 min pre-treatment, then 1 μM FSK 20 min
  accumulation of forskolin (FSK)-induced cAMP, fold induction: 3 fold
[4]; without FSK
  basal cAMP levels: without affecting the basal cAMP levels
PDE4B2
  PDE4B2 % inib at 10 μM: 18%
PDE4A4
  PDE4A4 % inib at 10 μM: 22%
PDE4C2
  PDE4C2 % inib at 10 μM: 11%
[5]; brain, male BALB/c mice, 10 mg/kg subcutaneously
  AUC0-t: 812 ng·h/g
[5]; [6]
  Cmax: 936 ng/g
  Tmax: 10.2 min
  half-life: 32.4 min
[5]; male, BALB/c, mouse, in vivo, sc, 10 mg/kg
  Kp: 0.75
[5]; [7]
  AUC0-t: 1890 ng·h/mL
  Cmax: 2160 ng/mL
  Tmax: 10.2 min
  half-life: 49.2 min
HTLA cells
  DNA damage (γ-H2AX): not observed
